Measured values published in US6737383B1, “Herbicidal oxadiazolidines” (priority 1999, dated 2004).

Tests used:
sugar beet = assay: Test B pre/postemergence sugar beet; format: in vivo, Beta vulgaris
Description: (§1) Seeds of bedstraw (Galium aparine), blackgrass (Alopecurus myosuroides), surinam grass (Brachiaria decumbens), cocklebur (Xanthium strumarium), corn (Zea mays), crabgrass (Digitaria sanguinalis), giant foxtail (Setaria faberii), morningglory (Ipomoea hederacea), pigweed (Amaranthus retroflexus), rape (Brassica napus), soybean (Glycine max), sugar beet (Beta vulgaris), velvetleaf (Abutilon theophrasti), wheat (Triticum aestivum), wild oat (Avena fatua) and purple nutsedge (Cyperus rotundus) tubers were planted and treated preemnergence with test chemicals formulated in a non-phytotoxic solvent mixture which included a surfactant.
(§2) At the same time, these crop and weed species were also treated with postemergence applications of test chemicals formulated in the same manner. Plants ranged in height from 2 to 18 cm (1- to 4-leaf stage) for postemergence treatments. Plant species in the flood test consisted of rice (Oryza sativa), smallflower flatsedge (Cyperus difformis), duck salad (Heteranthera limosa) and bamyardgrass (Echinochloa crus-galli) grown to the 2-leaf stage for testing. Treated plants and controls were maintained in a greenhouse for twelve to sixteen days, after which all species were compared to controls and visually evaluated. Plant response ratings, summarized in Table B, are based on a scale of 0 to 10 where 0 is no effect and 10 is complete control. A dash (−) response means no test result.

pigweed = assay: Test B pre/postemergence pigweed; format: in vivo, Amaranthus retroflexus
Description: as §1, §2

wild oat = assay: Test B pre/postemergence wild oat; format: in vivo, Avena fatua
Description: as §1, §2

surinam grass = assay: Test B pre/postemergence surinam grass; format: in vivo, Brachiaria decumbens
Description: as §1, §2

crabgrass = assay: Test B pre/postemergence crabgrass; format: in vivo, Digitaria sanguinalis
Description: as §1, §2

morningglory = assay: Test B pre/postemergence morningglory; format: in vivo, Ipomoea hederacea
Description: as §1, §2

cocklebur = assay: Test B pre/postemergence cocklebur; format: in vivo, Xanthium strumarium
Description: as §1, §2

velvetleaf = assay: Test B pre/postemergence velvetleaf; format: in vivo, Abutilon theophrasti
Description: as §1, §2

blackgrass = assay: Test B pre/postemergence blackgrass; format: in vivo, Alopecurus myosuroides
Description: as §1, §2

wheat = assay: Test B pre/postemergence wheat; format: in vivo, Triticum aestivum
Description: as §1, §2

soybean = assay: Test B pre/postemergence soybean; format: in vivo, Glycine max
Description: as §1, §2

purple nutsedge = assay: Test B pre/postemergence purple nutsedge; format: in vivo, Cyperus rotundus
Description: as §1, §2

bedstraw = assay: Test B pre/postemergence bedstraw; format: in vivo, Galium aparine
Description: as §1, §2

giant foxtail = assay: Test B pre/postemergence giant foxtail; format: in vivo, Setaria faberii
Description: as §1, §2

corn = assay: Test B pre/postemergence corn; format: in vivo, Zea mays
Description: as §1, §2

rape = assay: Test B pre/postemergence rape; format: in vivo, Brassica napus
Description: as §1, §2

[1] = Preemergence, Rate 62 g/ha, scale of 0 to 10 where 0 is no effect and 10 is complete control
[2] = Preemergence, Rate 125 g/ha, scale of 0 to 10 where 0 is no effect and 10 is complete control
[3] = Preemergence, Rate 250 g/ha, scale 0 (no effect) to 10 (complete control)
[4] = Rate 500 g/ha, Preemergence, scale 0 to 10 (0 no effect, 10 complete control)
[5] = Postemergence, Rate 62 g/ha, scale 0 to 10, 0 is no effect, 10 is complete control
[6] = Rate 62 g/ha, Preemergence, scale 0 to 10
[7] = Rate 250 g/ha, Postemergence, scale 0 to 10, 0 is no effect, 10 is complete control
[8] = Rate 500 g/ha, Postemergence, scale 0 to 10, 0 is no effect, 10 is complete control
[9] = Postemergence, Rate 125 g/ha, scale of 0 to 10 where 0 is no effect and 10 is complete control

## COC(CCl)n1c(=O)on(C(=O)N(c2ccc(Cl)cc2)C(C)C)c1=O (stereo not shown) [Compound 725]
Sugar beet; [1]
  Sugarbeets plant response rating: 0
Sugar beet; [2]
  Plant response rating, Sugarbeets: 0
Sugar beet; [3]
  Sugarbeets plant response rating: 0
Sugar beet; [4]
  Sugarbeets plant response rating: 2
pigweed; [1]
  Redroot pigweed plant response rating: 0
pigweed; [2]
  Plant response rating, Redroot pigweed: 0
pigweed; [3]
  Redroot pigweed plant response rating: 0
pigweed; [4]
  Redroot pigweed plant response rating: 3
Wild oat; [1]
  Wild oats plant response rating: 0
Wild oat; [2]
  Plant response rating, Wild oats: 2
Wild oat; [3]
  Wild oats plant response rating: 4
Wild oat; [4]
  Wild oats plant response rating: 6
Surinam grass; [1]
  B. signalgrass plant response rating: 0
Surinam grass; [2]
  Plant response rating, B. signalgrass: 3
Surinam grass; [3]
  B. signalgrass plant response rating: 4
Surinam grass; [4]
  B. signalgrass plant response rating: 4
crabgrass; [1]
  Crabgrass plant response rating: 6
crabgrass; [2]
  Plant response rating, Crabgrass: 6
crabgrass; [3]
  Crabgrass plant response rating: 8
crabgrass; [4]
  Crabgrass plant response rating: 8
morningglory; [1]
  Morningglory plant response rating: 1
morningglory; [2]
  Plant response rating, Morningglory: 1
morningglory; [3]
  Morningglory plant response rating: 1
morningglory; [4]
  Morningglory plant response rating: 3
cocklebur; [1]
  Cocklebur plant response rating: 0
cocklebur; [2]
  Plant response rating, Cocklebur: 0
cocklebur; [3]
  Cocklebur plant response rating: 0
cocklebur; [4]
  Cocklebur plant response rating: 0
velvetleaf; [1]
  Velvetleaf plant response rating: 0
velvetleaf; [2]
  Plant response rating, Velvetleaf: 0
velvetleaf; [3]
  Velvetleaf plant response rating: 0
velvetleaf; [4]
  Velvetleaf plant response rating: 0
blackgrass; [1]
  Blackgrass plant response rating: 2
blackgrass; [2]
  Plant response rating, Blackgrass: 4
blackgrass; [3]
  Blackgrass plant response rating: 7
blackgrass; [4]
  Blackgrass plant response rating: 7
wheat; [1]
  Wheat plant response rating: 0
wheat; [2]
  Plant response rating, Wheat: 0
wheat; [3]
  Wheat plant response rating: 0
wheat; [4]
  Wheat plant response rating: 0
soybean; [1]
  Soybean plant response rating: 0
soybean; [2]
  Plant response rating, Soybean: 0
soybean; [3]
  Soybean plant response rating: 0
soybean; [4]
  Soybean plant response rating: 0
Purple nutsedge; [1]
  Nutsedge plant response rating: 0
Purple nutsedge; [2]
  Plant response rating, Nutsedge: 0
Purple nutsedge; [4]
  Nutsedge plant response rating: 0
bedstraw; [1]
  Bedstraw plant response rating: 0
bedstraw; [2]
  Plant response rating, Bedstraw: 0
bedstraw; [3]
  Bedstraw plant response rating: 0
bedstraw; [4]
  Bedstraw plant response rating: 0
Giant foxtail; [1]
  Giant foxtail plant response rating: 7
Giant foxtail; [2]
  Plant response rating, Giant foxtail: 8
Giant foxtail; [3]
  Giant foxtail plant response rating: 10
Giant foxtail; [4]
  Giant foxtail plant response rating: 10
corn; [1]
  Corn plant response rating: 0
corn; [2]
  Plant response rating, Corn: 0
corn; [3]
  Corn plant response rating: 0
corn; [4]
  Corn plant response rating: 0
rape; [1]
  Rape plant response rating: 0
rape; [2]
  Plant response rating, Rape: 0
rape; [3]
  Rape plant response rating: 0
rape; [4]
  Rape plant response rating: 0

## Cc1nc(C(C)n2c(=O)on(C(=O)N(c3ccc(F)cc3)C(C)C)c2=O)sc1C (stereo not shown) [Compound 757]
Sugar beet; [5]
  Plant response rating, Sugarbeets: 0
Sugar beet; [2]
  Plant response rating, Sugarbeets: 0
Sugar beet; [3]
  Sugarbeets plant response rating: 0
Sugar beet; [6]
  Sugarbeets plant response rating: 0
Sugar beet; [7]
  Sugarbeets plant response rating: 3
Sugar beet; [8]
  Sugarbeets plant response rating: 3
Sugar beet; [4]
  Sugarbeets plant response rating: 0
pigweed; [5]
  Plant response rating, Redroot pigweed: 1
pigweed; [9]
  Redroot pigweed plant response rating: 3
pigweed; [2]
  Plant response rating, Redroot pigweed: 0
pigweed; [3]
  Redroot pigweed plant response rating: 2
pigweed; [6]
  Redroot pigweed plant response rating: 0
pigweed; [7]
  Redroot pigweed plant response rating: 5
pigweed; [8]
  Redroot pigweed plant response rating: 7
pigweed; [4]
  Redroot pigweed plant response rating: 3
Wild oat; [5]
  Plant response rating, Wild oats: 0
Wild oat; [2]
  Plant response rating, Wild oats: 0
Wild oat; [3]
  Wild oats plant response rating: 2
Wild oat; [6]
  Wild oats plant response rating: 0
Wild oat; [7]
  Wild oats plant response rating: 0
Wild oat; [8]
  Wild oats plant response rating: 0
Wild oat; [4]
  Wild oats plant response rating: 5
Surinam grass; [5]
  Plant response rating, B. signalgrass: 0
Surinam grass; [9]
  B. signalgrass plant response rating: 0
Surinam grass; [1]
  B. signalgrass plant response rating: 0
Surinam grass; [2]
  Plant response rating, B. signalgrass: 0
Surinam grass; [3]
  B. signalgrass plant response rating: 2
Surinam grass; [7]
  B. signalgrass plant response rating: 0
Surinam grass; [8]
  B. signalgrass plant response rating: 1
Surinam grass; [4]
  B. signalgrass plant response rating: 7
crabgrass; [5]
  Plant response rating, Crabgrass: 3
crabgrass; [9]
  Crabgrass plant response rating: 4
crabgrass; [2]
  Plant response rating, Crabgrass: 9
crabgrass; [3]
  Crabgrass plant response rating: 9
crabgrass; [6]
  Crabgrass plant response rating: 6
crabgrass; [7]
  Crabgrass plant response rating: 6
crabgrass; [8]
  Crabgrass plant response rating: 6
crabgrass; [4]
  Crabgrass plant response rating: 9
morningglory; [5]
  Plant response rating, Morningglory: 6
morningglory; [9]
  Morningglory plant response rating: 6
morningglory; [2]
  Plant response rating, Morningglory: 0
morningglory; [3]
  Morningglory plant response rating: 0
morningglory; [6]
  Morningglory plant response rating: 0
morningglory; [7]
  Morningglory plant response rating: 7
morningglory; [8]
  Morningglory plant response rating: 9
morningglory; [4]
  Morningglory plant response rating: 0
cocklebur; [5]
  Plant response rating, Cocklebur: 0
cocklebur; [9]
  Cocklebur plant response rating: 0
cocklebur; [2]
  Plant response rating, Cocklebur: 0
cocklebur; [3]
  Cocklebur plant response rating: 0
cocklebur; [6]
  Cocklebur plant response rating: 0
cocklebur; [7]
  Cocklebur plant response rating: 2
cocklebur; [8]
  Cocklebur plant response rating: 2
cocklebur; [4]
  Cocklebur plant response rating: 0
velvetleaf; [5]
  Plant response rating, Velvetleaf: 0
velvetleaf; [2]
  Plant response rating, Velvetleaf: 0
velvetleaf; [3]
  Velvetleaf plant response rating: 0
velvetleaf; [6]
  Velvetleaf plant response rating: 0
velvetleaf; [7]
  Velvetleaf plant response rating: 3
velvetleaf; [8]
  Velvetleaf plant response rating: 4
velvetleaf; [4]
  Velvetleaf plant response rating: 0
blackgrass; [5]
  Plant response rating, Blackgrass: 0
blackgrass; [9]
  Blackgrass plant response rating: 0
blackgrass; [2]
  Plant response rating, Blackgrass: 2
blackgrass; [3]
  Blackgrass plant response rating: 3
blackgrass; [6]
  Blackgrass plant response rating: 1
blackgrass; [7]
  Blackgrass plant response rating: 3
blackgrass; [8]
  Blackgrass plant response rating: 4
blackgrass; [4]
  Blackgrass plant response rating: 7
wheat; [5]
  Plant response rating, Wheat: 0
wheat; [2]
  Plant response rating, Wheat: 0
wheat; [3]
  Wheat plant response rating: 0
wheat; [6]
  Wheat plant response rating: 0
wheat; [7]
  Wheat plant response rating: 0
wheat; [8]
  Wheat plant response rating: 0
wheat; [4]
  Wheat plant response rating: 3
soybean; [5]
  Plant response rating, Soybean: 3
soybean; [2]
  Plant response rating, Soybean: 0
soybean; [3]
  Soybean plant response rating: 0
soybean; [6]
  Soybean plant response rating: 0
soybean; [7]
  Soybean plant response rating: 4
soybean; [8]
  Soybean plant response rating: 4
soybean; [4]
  Soybean plant response rating: 0
Purple nutsedge; [5]
  Plant response rating, Nutsedge: 0
Purple nutsedge; [9]
  Nutsedge plant response rating: 0
Purple nutsedge; [2]
  Plant response rating, Nutsedge: 0
Purple nutsedge; [3]
  Nutsedge plant response rating: 0
Purple nutsedge; [6]
  Nutsedge plant response rating: 0
Purple nutsedge; [7]
  Nutsedge plant response rating: 0
Purple nutsedge; [8]
  Nutsedge plant response rating: 0
Purple nutsedge; [4]
  Nutsedge plant response rating: 0
bedstraw; [9]
  Bedstraw plant response rating: 0
bedstraw; [2]
  Plant response rating, Bedstraw: 0
bedstraw; [3]
  Bedstraw plant response rating: 0
bedstraw; [6]
  Bedstraw plant response rating: 0
bedstraw; [7]
  Bedstraw plant response rating: 0
bedstraw; [4]
  Bedstraw plant response rating: 0
Giant foxtail; [5]
  Plant response rating, Giant foxtail: 2
Giant foxtail; [9]
  Giant foxtail plant response rating: 2
Giant foxtail; [2]
  Plant response rating, Giant foxtail: 9
Giant foxtail; [3]
  Giant foxtail plant response rating: 9
Giant foxtail; [6]
  Giant foxtail plant response rating: 9
Giant foxtail; [7]
  Giant foxtail plant response rating: 5
Giant foxtail; [8]
  Giant foxtail plant response rating: 7
Giant foxtail; [4]
  Giant foxtail plant response rating: 9
corn; [5]
  Plant response rating, Corn: 0
corn; [9]
  Corn plant response rating: 0
corn; [2]
  Plant response rating, Corn: 0
corn; [3]
  Corn plant response rating: 0
corn; [6]
  Corn plant response rating: 0
corn; [7]
  Corn plant response rating: 0
corn; [8]
  Corn plant response rating: 0
corn; [4]
  Corn plant response rating: 0
rape; [5]
  Plant response rating, Rape: 0
rape; [9]
  Rape plant response rating: 0
rape; [2]
  Plant response rating, Rape: 0
rape; [3]
  Rape plant response rating: 0
rape; [6]
  Rape plant response rating: 0
rape; [7]
  Rape plant response rating: 0
rape; [8]
  Rape plant response rating: 0
rape; [4]
  Rape plant response rating: 0
